Laboratory results taken from ChEMBL document CHEMBL1130161, “Cyclic urea amides: HIV-1 protease inhibitors with low nanomolar potency against both wild type and protease inhibitor resistant mutants of HIV” (J Med Chem, 1997).

Assays:
[1] = target: Human immunodeficiency virus type 1 protease (Human immunodeficiency virus 1) (UniProt Q72874); test: Inhibitory concentration against accumulation of viral p24 antigen following infection of MT-4 cells; type: functional, cell-based; settings: MT4
[2] = system: Human immunodeficiency virus; test: Resistance of constructed mutant […]/47V/50V virus was calculated as (IC90 for a mutant virus / IC90 of wt HXB2 virus).; type: functional
[3] = system: Human immunodeficiency virus; test: Resistance of constructed mutant 48V/90M virus was calculated as (IC90 for a mutant virus / IC90 of wt HXB2 virus); type: functional
[4] = system: Human immunodeficiency virus; test: Resistance of constructed mutant 82A virus was calculated as (IC90 for a mutant virus / IC90 of wt HXB2 virus).; type: functional
[5] = Resistance of constructed mutant 82F virus was calculated as (IC90 for a mutant virus / IC90 of wt HXB2 virus).; type: functional
[6] = system: Human immunodeficiency virus; test: Resistance of constructed mutant ABT538 virus was calculated as (IC90 for a mutant virus / IC90 of wt HXB2 virus); type: functional
[7] = system: Human immunodeficiency virus; test: Resistance of constructed mutant MK639 virus was calculated as (IC90 for a mutant virus / IC90 of wt HXB2 virus).; type: functional
[8] = system: Human immunodeficiency virus; test: Resistance of constructed mutant 84V virus was calculated as (IC90 for a mutant virus / IC90 of wt HXB2 virus).; type: functional
[9] = target: Human immunodeficiency virus type 1 protease (Human immunodeficiency virus 1, UniProt Q72874); test: Binding affinity to inhibit the purified wild-type HIV-1 Protease

Row | Structure (SMILES) | IC90 [1] | Resistance [2] | Resistance [3] | Resistance [4] | Resistance [5] | Resistance [6] | Resistance [7] | Resistance [8] | Ki [9]
1 | CC(C)CN(C[C@@H](O)[C@H](Cc1ccccc1)NC(=O)O[C@H]1CCOC1)S(=O)(=O)c1ccc(N)cc1 | 81 nM | 39 | 1.1 | 2.2 | 1.9 | 13 | 3.8 | 1.5 | –
2 | CC(C)[C@H](NC(=O)OCc1ccccc1)C(=O)N[C@@H](Cc1ccccc1)[C@H](O)[C@@H](O)[C@@H](Cc1ccccc1)NC(=O)[C@H](NC(=O)OCc1ccccc1)C(C)C | 195 nM | 6.5 | 1.3 | 6 | 1.8 | 13 | >150 | 2.1 | 0.25 nM
3 | Nc1cccc(CN2C(=O)N(Cc3cccc(N)c3)[C@H](Cc3ccccc3)[C@H](O)[C@@H](O)[C@H]2Cc2ccccc2)c1 [MOZENAVIR] | 120 nM | 7.5 | 1.5 | 2.5 | 5.3 | 49 | 27 | 9.9 | 0.34 nM
4 | CC(C)c1nc(CN(C)C(=O)N[C@H](C(=O)N[C@@H](Cc2ccccc2)C[C@H](O)[C@H](Cc2ccccc2)NC(=O)OCc2cncs2)C(C)C)cs1 [RITONAVIR] | – | 6 | 5 | 7.1 | 8.9 | 30 | 5.5 | 2.4 | –
5 | O=C(Nc1nc2ccccc2[nH]1)c1cccc(CN2C(=O)N(CC3CC3)[C@H](Cc3ccccc3)[C@H](O)[C@@H](O)[C@H]2Cc2ccccc2)c1 | 17 nM | 2.1 | 1.9 | 1.9 | 2.1 | 86 | 26 | 8.4 | 0.037 nM
6 | O=C(Nc1nccs1)c1cccc(CN2C(=O)N(Cc3cccc(C(=O)Nc4nccs4)c3)[C@H](Cc3ccccc3)[C@H](O)[C@@H](O)[C@H]2Cc2ccccc2)c1 | 4.2 nM | 23 | 0.2 | 2.2 | 0.9 | 24 | 8.7 | 1.2 | –
7 | O=C(Nc1ncc[nH]1)c1cccc(CN2C(=O)N(Cc3ccccc3)[C@H](Cc3ccccc3)[C@H](O)[C@@H](O)[C@H]2Cc2ccccc2)c1 | 21 nM | – | 0.6 | 1 | 0.5 | 29 | 15 | 2.9 | 0.033 nM
8 | O=C(Nc1nc2ccccc2[nH]1)c1cccc(CN2C(=O)N(Cc3cccc(C(=O)Nc4nc5ccccc5[nH]4)c3)[C@H](Cc3ccccc3)[C@H](O)[C@@H](O)[C@H]2Cc2ccccc2)c1 | 5.1 nM | 1 | 0.3 | 0.8 | 0.3 | 1.2 | 0.7 | 0.6 | –
9 | CCCCN1C(=O)N(Cc2cccc(C(=O)Nc3ncc[nH]3)c2)[C@H](Cc2ccccc2)[C@H](O)[C@@H](O)[C@H]1Cc1ccccc1 | 18 nM | – | 1 | 1.4 | 14.5 | 27 | 14.5 | 4.2 | 0.025 nM
10 | CC(C)(C)NC(=O)[C@@H]1C[C@@H]2CCCC[C@@H]2CN1C[C@@H](O)[C@H](Cc1ccccc1)NC(=O)[C@H](CC(N)=O)NC(=O)c1ccc2ccccc2n1 | 15 nM | – | 20 | 0.9 | 0.4 | 0.6 | 5.3 | 0.7 | –
11 | O=C1N(CC2CC2)[C@H](Cc2ccccc2)[C@H](O)[C@@H](O)[C@@H](Cc2ccccc2)N1CC1CC1 | 2100 nM | 1.7 | 1.3 | 1.4 | 4 | 7.2 | 11 | 6.6 | –
12 | O=C(Nc1nccs1)c1cccc(CN2C(=O)N(Cc3ccccc3)[C@H](Cc3ccccc3)[C@H](O)[C@@H](O)[C@H]2Cc2ccccc2)c1 | 74 nM | 10.2 | 1.9 | 4.9 | 3 | 31 | 10 | 7.2 | 0.074 nM
13 | O=C(Nc1ncc[nH]1)c1cccc(CN2C(=O)N(CC3CC3)[C@H](Cc3ccccc3)[C@H](O)[C@@H](O)[C@H]2Cc2ccccc2)c1 | 28 nM | – | – | – | – | 83 | 12 | – | 0.016 nM
14 | CC(C)(C)NC(=O)[C@@H]1CN(Cc2cccnc2)CCN1C[C@@H](O)C[C@@H](Cc1ccccc1)C(=O)N[C@H]1c2ccccc2C[C@H]1O.O | 28 nM | 1.8 | 3.6 | 2.5 | 2.8 | 6.5 | 18 | 0.5 | –
15 | O=C(Nc1nccs1)c1cccc(CN2C(=O)N(CC3CC3)[C@H](Cc3ccccc3)[C@H](O)[C@@H](O)[C@H]2Cc2ccccc2)c1 | 40 nM | 11 | 0.9 | 1.8 | 4.1 | 41 | 18.5 | 6.1 | –
16 | O=C(Nc1ncc[nH]1)c1cccc(CN2C(=O)N(Cc3cccc(C(=O)Nc4ncc[nH]4)c3)[C@H](Cc3ccccc3)[C@H](O)[C@@H](O)[C@H]2Cc2ccccc2)c1 | 19 nM | 0.4 | 0.1 | 2.7 | 1.6 | 0.2 | 0.4 | 0.7 | –
17 | O=C1N(Cc2ccc(CO)cc2)[C@H](Cc2ccccc2)[C@H](O)[C@@H](O)[C@@H](Cc2ccccc2)N1Cc1ccc(CO)cc1 [DMP-323] | 95 nM | 11 | 0.3 | 2.8 | 7.1 | 93 | 18 | 22 | –
